Laboratory results as given in US7144992B2, “Synergistic antimicrobial compositions and methods for reducing biofilm formation” (Kane Biotech Inc., priority 2004, dated 2006).

What was measured:
[1] = Solubility; details: for solubility in organic solvents: DMSO, methanol, acetone and acetonitrile
[2] = tested on: thioredoxin reductase; details: enzyme crosslinked with the thiol-specific reagent; Donna et al., Prot. Sci. 7:369–375, 1998; cited from earlier work

SMILES	solubility in organic solvents [1]	solubility in water [1]	decrease in thioredoxin reductase activity [2]
O=C1C=CC(=O)N1c1ccc2ccc3cccc4ccc1c2c34 [PyrM, N-(1-pyrenyl) maleimide]	soluble in organic solvents	not soluble in water	
O=C1C=CC(=O)N1c1ccccc1N1C(=O)C=CC1=O [oPDM, N,N′-(1,2-phenylene) dimaleimide]	soluble in organic solvents	not soluble in water	95%
